# Laboratory results taken from patent US9708314B2, “Heterocyclic amide compound” (NISSAN CHEMICAL INDUSTRIES, LTD., priority 2013, dated 2017).
# Tests used:
# Type in all cases: in vivo
# [1] = test system: Triticum aestivum; experiment: Test Example 4: effect on crop by application to foliage (diluvial soil, plastic box); details: for e: Application herbicide amount 320 g/ha, effect on crop
# How it was run: (§1)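 Seeds sown in sterilized diluvial soil, covered ~1.5 cm, grown 14 days in greenhouse at 25° C. to 30° C. Emulsion formulation diluted in water to set rate (g/ha) and sprayed onto stems and leaves. Effect scored visually 3 weeks later on 0–5 scale (5 = ≥90% herbicidal ratio, 0 = ≤5%).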
# [2] = test system: directly sowed Oryza sativa; experiment: as above; details: Application herbicide amount 320 g/ha; effect on crop
# How it was run: as §1
# [3] = test system: Beta vulgaris ssp. vulgaris; experiment: as above; details: for f: Application herbicide amount 320 g/ha, effect on crop
# How it was run: as §1
# [4] = test system: Brassica campestris L.; experiment: as above; details: for g: Application herbicide amount 320 g/ha, effect on crop
# How it was run: as §1
# [5] = test system: Glycine max; experiment: as above; details: for c: Application herbicide amount 320 g/ha, effect on crop
# How it was run: as §1
# [6] = test system: Zea mays; experiment: as above; details: for b: Application herbicide amount 320 g/ha, effect on crop
# How it was run: as §1
# [7] = test system: Monochoria vaginalis; experiment: Test Example 2: herbicidal activity, application during weed generation in submerged conditions; details: Eighteenth Table
# Source text: (§2) 5 Herbicidal ratio of 90% or more (almost completely withered) 4 Herbicidal ratio of 70% or more and less than 90% 3 Herbicidal ratio of 40% or more and less than 70% 2 Herbicidal ratio of 20% or more and less than 40% 1 Herbicidal ratio of 5% or more and less than 20% 0 Herbicidal ratio of 5% or less (almost no effect) [Test Example 2] Herbicidal Activity Test by Application During Weed Generation in Submerged Conditions After alluvial soil was placed into 1/10000 are of Wagner pot, water was poured and mixed to form a submerged condition having a water depth of 4 cm. Seeds of Echinochloa oryzacola Vasing., Scirpus juncoides, and Monochoria vaginalis were sowed in a mixed manner in the above pot and the pot was placed in the greenhouse of 25° C. to 30° C. to grow the plants. When Echinochloa oryzacola Vasing., Scirpus juncoides, and Monochoria vaginalis were grown to one leaf stage to two leaf stage, the emulsion agent containing the compound of the present invention prepared in accordance with Formulation Example 2 was diluted with water so as to be a predetermined herbicide amount and the diluted compound was applied to the surface of the water. Three weeks after the herbicide application, effects on each plant were investigated in accordance with the criteria of Test Example 1. A: Echinochloa oryzicola Vasing., B: Scirpus juncoides, C: Monochoria vaginalis, D: Leptochloa chinensis, E: Cyperus difformis, F: Digitaria ciliaris, G: Setaria viridis, H: Echinochloa crus-galli var. crus-galli, I: Avena fatua, J: Alopecurus myosuroides, K: Lolium multiflorum Lam., L: Apera spica-venti., M: Abutilon theophrasti, N: Amaranthus retroflexus, O: Chenopodium album, P: Stellaria media, Q: Galium spurium, R: Veronica persica, a: transplanted Oryza sativa, b: directly sowed Oryza sativa, c: Zea mays, d: Glycine max, e: Triticum aestivum, f: Beta vulgaris ssp. vulgaris, and g: Brassica campestris L. The application herbicide amount (g/ha) means an amount that a concentration is adjusted so that, when an application amount is converted into per hectare (1 ha), the herbicide is applied by the number of grams (g) of the described value.
# [8] = test system: Echinochloa oryzacola Vasing.; experiment: as above; details: Eighteenth Table
# Source text: as §2
# [9] = test system: Echinochloa crus-galli var. crus-galli; experiment: Test Example 4: herbicidal effect by application to foliage (diluvial soil, plastic box); details: for H: Application herbicide amount 320 g/ha
# How it was run: as §1
# [10] = test system: Chenopodium album; experiment: as above; details: for O: Application herbicide amount 320 g/ha
# How it was run: as §1
# [11] = test system: Apera spica-venti.; experiment: as above; details: for L: Application herbicide amount 320 g/ha
# How it was run: as §1
# [12] = test system: Avena fatua; experiment: as above; details: for I: Application herbicide amount 320 g/ha
# How it was run: as §1
# [13] = test system: Veronica persica; experiment: as above
# How it was run: as §1
# [14] = test system: Alopecurus myosuroides; experiment: as above; details: for J: Application herbicide amount 320 g/ha
# How it was run: as §1
# [15] = test system: Setaria viridis; experiment: as above; details: for G: Application herbicide amount 320 g/ha
# How it was run: as §1
# [16] = test system: Digitaria ciliaris; experiment: as above; details: for F: Application herbicide amount 320 g/ha
# How it was run: as §1
# [17] = test system: Galium spurium; experiment: as above; details: for Q: Application herbicide amount 320 g/ha
# How it was run: as §1
# [18] = test system: Lolium multiflorum Lam.; experiment: as above; details: for K: Application herbicide amount 320 g/ha
# How it was run: as §1
# [19] = test system: Abutilon theophrasti; experiment: as above; details: for M: Application herbicide amount 320 g/ha
# How it was run: as §1
# [20] = test system: Scirpus juncoides; experiment: Test Example 2: herbicidal activity, application during weed generation in submerged conditions; details: Eighteenth Table
# Source text: as §2
# [21] = application herbicide amount 320 g/ha
# [22] = Application herbicide amount 288 g/ha, foliage application
# [23] = application herbicide amount 288 g/ha
structure (smiles),measurement,setting,value
CCCSc1nnc2c(C(=O)Nc3nnc(C)o3)ccc(C(F)(F)F)n12 [1-087],e,[1],2 (Herbicidal ratio of 20% or more and less than 40%)
same,d,[2],4 (Herbicidal ratio of 70% or more and less than 90%)
same,f,[3],5 (Herbicidal ratio of 90% or more (almost completely withered))
same,g,[4],4 (Herbicidal ratio of 70% or more and less than 90%)
same,c,[5],4 (Herbicidal ratio of 70% or more and less than 90%)
same,b,[6],0 (Herbicidal ratio of 5% or less (almost no effect))
same,C (Monochoria vaginalis) herbicidal ratio grade,[7]; [21],3 (Herbicidal ratio of 40% or more and less than 70%)
same,A (Echinochloa oryzicola Vasing.) herbicidal ratio grade,[8]; [21],4 (Herbicidal ratio of 70% or more and less than 90%)
same,H,[9],5 (Herbicidal ratio of 90% or more (almost completely withered))
same,O,[10],5 (Herbicidal ratio of 90% or more (almost completely withered))
same,L,[11],2 (Herbicidal ratio of 20% or more and less than 40%)
same,I,[12],3 (Herbicidal ratio of 40% or more and less than 70%)
same,R,[13]; Application herbicide amount 320 g/ha,4 (Herbicidal ratio of 70% or more and less than 90%)
same,J,[14],3 (Herbicidal ratio of 40% or more and less than 70%)
same,G,[15],5 (Herbicidal ratio of 90% or more (almost completely withered))
same,F,[16],5 (Herbicidal ratio of 90% or more (almost completely withered))
same,Q,[17],1 (Herbicidal ratio of 5% or more and less than 20%)
same,K,[18],1 (Herbicidal ratio of 5% or more and less than 20%)
same,M,[19],5 (Herbicidal ratio of 90% or more (almost completely withered))
C=CCSc1nnc2c(C(=O)Nc3nnco3)ccc(C(F)(F)F)n12 [1-128],e (Triticum aestivum) effect on crop grade,[1]; [22],1 (Herbicidal ratio of 5% or more and less than 20%)
same,f (Beta vulgaris ssp. vulgaris) effect on crop grade,[3]; [22],5 (Herbicidal ratio of 90% or more (almost completely withered))
same,g (Brassica campestris L.) effect on crop grade,[4]; [22],3 (Herbicidal ratio of 40% or more and less than 70%)
same,d (Glycine max) effect on crop grade,[5]; [22],3 (Herbicidal ratio of 40% or more and less than 70%)
same,c (Zea mays) effect on crop grade,[6]; [22],0 (Herbicidal ratio of 5% or less (almost no effect))
same,C (Monochoria vaginalis) herbicidal ratio grade,[7]; [23],0 (Herbicidal ratio of 5% or less (almost no effect))
same,B (Scirpus juncoides) herbicidal ratio grade,[20]; [23],3 (Herbicidal ratio of 40% or more and less than 70%)
same,A (Echinochloa oryzicola Vasing.) herbicidal ratio grade,[8]; [23],1 (Herbicidal ratio of 5% or more and less than 20%)
same,H (Echinochloa crus-galli var. crus-galli) herbicidal effect grade,[9]; [22],5 (Herbicidal ratio of 90% or more (almost completely withered))
same,O (Chenopodium album) herbicidal effect grade,[10]; [22],5 (Herbicidal ratio of 90% or more (almost completely withered))
same,L (Apera spica-venti.) herbicidal effect grade,[11]; [22],1 (Herbicidal ratio of 5% or more and less than 20%)
same,I (Avena fatua) herbicidal effect grade,[12]; [22],0 (Herbicidal ratio of 5% or less (almost no effect))
same,R (Veronica persica) herbicidal effect grade,[13]; [22],5 (Herbicidal ratio of 90% or more (almost completely withered))
same,J (Alopecurus myosuroides) herbicidal effect grade,[14]; [22],1 (Herbicidal ratio of 5% or more and less than 20%)
same,G (Setaria viridis) herbicidal effect grade,[15]; [22],2 (Herbicidal ratio of 20% or more and less than 40%)
same,F (Digitaria ciliaris) herbicidal effect grade,[16]; [22],5 (Herbicidal ratio of 90% or more (almost completely withered))
same,Q (Galium spurium) herbicidal effect grade,[17]; [22],1 (Herbicidal ratio of 5% or more and less than 20%)
same,K (Lolium multiflorum Lam.) herbicidal effect grade,[18]; [22],1 (Herbicidal ratio of 5% or more and less than 20%)
same,M (Abutilon theophrasti) herbicidal effect grade,[19]; [22],3 (Herbicidal ratio of 40% or more and less than 70%)
Cc1nnc(NC(=O)c2ccc(C(F)(F)F)n3c(C(C)[S+](C)[O-])nnc23)o1 (centres unmarked) [1-079],e,[1],4 (Herbicidal ratio of 70% or more and less than 90%)
same,d,[2],5 (Herbicidal ratio of 90% or more (almost completely withered))
same,f,[3],5 (Herbicidal ratio of 90% or more (almost completely withered))
same,g,[4],5 (Herbicidal ratio of 90% or more (almost completely withered))
same,c,[5],1 (Herbicidal ratio of 5% or more and less than 20%)
same,b,[6],4 (Herbicidal ratio of 70% or more and less than 90%)
same,C (Monochoria vaginalis) herbicidal ratio grade,[7]; [21],4 (Herbicidal ratio of 70% or more and less than 90%)
same,B (Scirpus juncoides) herbicidal ratio grade,[20]; [21],3 (Herbicidal ratio of 40% or more and less than 70%)
same,A (Echinochloa oryzicola Vasing.) herbicidal ratio grade,[8]; [21],4 (Herbicidal ratio of 70% or more and less than 90%)
same,H,[9],5 (Herbicidal ratio of 90% or more (almost completely withered))
same,O,[10],5 (Herbicidal ratio of 90% or more (almost completely withered))
same,I,[12],4 (Herbicidal ratio of 70% or more and less than 90%)
same,J,[14],2 (Herbicidal ratio of 20% or more and less than 40%)
same,G,[15],5 (Herbicidal ratio of 90% or more (almost completely withered))
same,F,[16],5 (Herbicidal ratio of 90% or more (almost completely withered))
same,Q,[17],4 (Herbicidal ratio of 70% or more and less than 90%)
same,K,[18],3 (Herbicidal ratio of 40% or more and less than 70%)
same,M,[19],5 (Herbicidal ratio of 90% or more (almost completely withered))
CSC(C)c1nnc2c(C(=O)Nc3nnc(C)o3)ccc(C(F)(F)F)n12 (centres unmarked) [1-078],e,[1],4 (Herbicidal ratio of 70% or more and less than 90%)
same,d,[2],4 (Herbicidal ratio of 70% or more and less than 90%)
same,f,[3],5 (Herbicidal ratio of 90% or more (almost completely withered))
same,g,[4],4 (Herbicidal ratio of 70% or more and less than 90%)
same,c,[5],4 (Herbicidal ratio of 70% or more and less than 90%)
same,b,[6],4 (Herbicidal ratio of 70% or more and less than 90%)
same,C (Monochoria vaginalis) herbicidal ratio grade,[7]; [21],3 (Herbicidal ratio of 40% or more and less than 70%)
same,B (Scirpus juncoides) herbicidal ratio grade,[20]; [21],3 (Herbicidal ratio of 40% or more and less than 70%)
same,A (Echinochloa oryzicola Vasing.) herbicidal ratio grade,[8]; [21],4 (Herbicidal ratio of 70% or more and less than 90%)
same,H,[9],5 (Herbicidal ratio of 90% or more (almost completely withered))
same,O,[10],5 (Herbicidal ratio of 90% or more (almost completely withered))
same,L,[11],4 (Herbicidal ratio of 70% or more and less than 90%)
same,I,[12],4 (Herbicidal ratio of 70% or more and less than 90%)
same,J,[14],3 (Herbicidal ratio of 40% or more and less than 70%)
same,G,[15],5 (Herbicidal ratio of 90% or more (almost completely withered))
same,F,[16],5 (Herbicidal ratio of 90% or more (almost completely withered))
same,K,[18],3 (Herbicidal ratio of 40% or more and less than 70%)
same,M,[19],5 (Herbicidal ratio of 90% or more (almost completely withered))
